Source: patent US20230056604A1, “EPIDERMAL GROWTH FACTOR RECEPTOR TYROSINE KINASE INHIBITORS FOR THE TREATMENT OF CANCER” (AstraZeneca AB, priority 2020, published 2023)
“Also recorded” adds a separate entry of the source.

Tests used:
[1] = test system: PC9, HCC2935 and NCI-H1975 cells; assay: Incucyte cell confluence: formation and regrowth of osimertinib drug tolerant persister cells; type: cell-based, human
Experimental: HCC2935, NCI-H1975 and PC9 cells were treated with osimertinib, AZD5582 or the combination of the two agents for 10 days, after which time drug was removed to allow regrowth of the cells. Cell confluence was measured on the Incucyte imaging platform as a surrogate for cell number.
Representative images were taken from the cell growth experiments in PC9 and HCC2935 cell lines described in FIG. 4. Cells treated for 10 days with either osimertinib alone or osimertinib in combination with AZD5582, at which time drug was removed from 7 days.
FIG. 6: osimertinib DTPs are sensitive to Smac mimetic treatment. Parental PC9 cells were treated with the combination of osimertinib and 4 distinct Smac mimetics to determine the rate of DTP survival and re-growth. Cell confluence was measured on the Incucyte imaging platform as a surrogate for DTP number.
PC9 is a cell line derived from human lung adenocarcinoma harbouring the activating mutation in EGFR del E746_A750 (Ex19-del). HCC2935 is a cell line derived from a pleural effusion of human lung adenocarcinoma harbouring the activating mutation in EGFR del E746_T751 (Ex19-del). HCC2279 is a cell line derived from a human lung adenocarcinoma bearing the activating mutation in EGFR del Em746_A750. HCC4006 is a cell line derived from a human lung adenocarcinoma bearing the activating mutation in EGFR del E746_A750. […]

[2] = test system: subcutaneous PC9 model in nude mice; assay: PC9 xenograft tumour growth inhibition and re-growth in vivo
Experimental: Tumour growth inhibition following dosing of vehicle, osimertinib 25 mg/kg PO QD, AZD5582 2 mg/kg IV QW, or the combination of the two agents for 3 weeks followed by a period of re-growth in the subcutaneous, PC9 model in nude mice. Data are represented as mean ±SEM (n=8 per group) or as tumour volume of individual mouse.
Tumour growth inhibition following dosing of vehicle for 3 weeks, osimertinib 25 mg/kg PO QD for 6 weeks, or osimertinib 25 mg/kg PO QD for 3 weeks followed by the combination of osimertinib 25 mg/kg PO QD and AZD5582 2 mg/kg IV QW for 3 weeks followed by a period of re-growth in the subcutaneous, PC9 model in nude mice. Data are represented as mean±SEM (n=8 per group) or as tumour volume of individual mouse.

[3] = test system: EGFRm parental cells (HCC2279, HCC2935, HCC4006, II-18, NCI-H1975 and PC9); assay: Incucyte Caspase-3/7 apoptosis assay in EGFRm parental cell lines; type: cell-based, human; details: panel of 6 EGFRm cell lines; osimertinib 160 nM + Smac mimetic 1 μM vs osimertinib monotherapy; 48 h, normalised to DMSO
Experimental: Data was calculated as the number of apoptotic events divided by cell confluence, and normalised to the values for DMSO control. Data are presented on a log scale to better visualize all cell lines.
FIG. 3: Multiple Smac mimetic molecules enhance osimertinib-induced apoptosis in NCI-H1975 and PC9 cells Caspase-3/7 activation, a direct readout of apoptotic initiation was measured after 48 h of treatment with either osimertinib monotherapy or its combination with 4 distinct Smac mimetic small molecules in NCI-H1975 and PC9 cells. Data was calculated as the number of apoptotic events divided by cell confluence, and normalised to the values for DMSO control.
PC9 is a cell line derived from human lung adenocarcinoma harbouring the activating mutation in EGFR del E746_A750 (Ex19-del). HCC2935 is a cell line derived from a pleural effusion of human lung adenocarcinoma harbouring the activating mutation in EGFR del E746_T751 (Ex19-del). […]
EGFRm parental cells (HCC2279, HCC2935, HCC4006, II-18, NCI-H1975 and PC9) were seeded in 96 well plated at a concentration of 5000 cells/well. […] Cells were then placed on the Incucyte S3 imaging system and both cell confluence and green fluorescence were measured, every 4 hours. After 96 h the experiment was terminated, and apoptosis values calculated by dividing the number of individual green points (apoptosis events) by cell confluence. […]

[4] = test system: c-IAP1 and c-IAP2 mRNA (BIRC2 and BIRC3) in PC9, HCC2935 and NCI-H1975 cell lines; assay: RNAseq gene expression of c-IAP1 and c-IAP2 mRNA in EGFRm cell lines after osimertinib treatment; type: cell-based, human; details: osimertinib acute (24 h) or chronic (14 d, DTP) vs untreated (DMSO), particularly chronic schedule
Experimental: FIG. 1: A subset of EGFRm NSCLC cell lines upregulate the expression of c-IAP1 and c-IAP2 mRNA after prolonged treatment with osimertinib. RNA sequencing (RNAseq) was performed in cells chronically treated with osimertinib (14 days) and compared to untreated (DMSO) or acutely treated (24 h) cells. Levels of BIRC2 mRNA (c-IAP1) and BIC3 mRNA (c-IAP2) were plotted on a log 2 scale.
PC9 is a cell line derived from human lung adenocarcinoma harbouring the activating mutation in EGFR del E746_A750 (Ex19-del). HCC2935 is a cell line derived from a pleural effusion of human lung adenocarcinoma harbouring the activating mutation in EGFR del E746_T751 (Ex19-del). HCC2279 is a cell line derived from a human lung adenocarcinoma bearing the activating mutation in EGFR del Em746_A750. HCC4006 is a cell line derived from a human lung adenocarcinoma bearing the activating mutation in EGFR del E746_A750. II-18 is a cell line derived from a human lung adenocarcinoma bearing the activating mutation in EGFR L858R. NCI-H1975 is a cell line derived from a human lung adenocarcinoma bearing the activating mutation in EGFR L858R and the gatekeeper mutation in EGFR T790M.
The purpose of this experiment was to use RNAseq to analyse gene expression in EGFRm cell lines treated both chronically (14 d) or acutely (24 h) with osimertinib.

Row | Compound | percentage confluency (a measure of cell growth) ([1]; PC9, HCC2935 or NCI-H1975, 10 days combination with osimertinib (500 nM) then drug removal, vs 10 days osimertinib alone) | regrowth of cells after drug removal (representative images) ([1]; PC9 and HCC2935, 10 days osimertinib + AZD5582, then drug removed for 7 days) | tumour growth inhibition / regrowth after treatment release ([2]; minimal residual disease: osimertinib 21 days, then osimertinib + AZD5582 2 mg/kg IV QW 21 days, vs osimertinib alone 42 days, 2 mg/kg) | tumour growth inhibition / regrowth after treatment release ([2]; osimertinib 25 mg/kg PO QD + AZD5582 2 mg/kg IV QW for 21 days vs osimertinib alone for 21 days) | number of apoptotic events (Caspase-3/7 activation) normalised to cell confluence [3] | mRNAs coding for c-IAP1 and c-IAP2 (BIRC2 and BIRC3) expression [4]
1 | CN[C@@H](C)C(=O)N[C@H](C(=O)N1CCC[C@H]1C(=O)N[C@H]1c2ccccc2C[C@H]1OCC#CC#CCO[C@@H]1Cc2ccccc2[C@@H]1NC(=O)[C@@H]1CCCN1C(=O)[C@@H](NC(=O)[C@H](C)NC)C1CCCCC1)C1CCCCC1 [AZD5582] | lower percentage confluency; also recorded: enhances the antiproliferative effects of osimertinib | fail to regrow after drug removal | delay of regrowth; also recorded: enhances the antiproliferative effects of osimertinib | delay of regrowth; also recorded: enhances the antiproliferative effects of osimertinib | enhances osimertinib-induced apoptosis | 
2 | C=CC(=O)Nc1cc(Nc2nccc(-c3cn(C)c4ccccc34)n2)c(OC)cc1N(C)CCN(C)C [osimertinib, N-(2-{2-dimethylaminoethyl-methylamino}-4-methoxy-5-{[4-(1-methylindol-3-yl)pyrimidin-2-yl]amino}phenyl) prop-2-enamide] |  |  |  |  |  | significantly upregulated
